What was measured:
[1] = test system: glioma stem cells (U87MG SLC, U251 SLC, GSC2, GSC5); assay: Detection of cell viability by MTS assay; type: cell-based, human
From the text: “MTS assay”: a colorimetric method for determining the number of viable cells in proliferation assays and cytotoxicity assays. MTS is a novel tetrazolium compound. PMS is an electron coupling reagent with enhanced chemical stability, which forms a stable solution when mixed with MTS. MTS can be reduced by cellular organisms to generate a colored formazan product that is soluble in culture media. This conversion is thought to be carried out by NAD(P)H-dependent dehydrogenase enzymes in metabolically active cells. The amount of the formazan product, which is quantified at 490 nm, is proportional to the number of viable cells in culture.
“The relative cell viability”: after the detection of the value of absorbance by above MTS assay, the relative cell viability is calculated based on the value of absorbance (A). […]
(2) In order to detect the effect of clofoctol on cell viability of glioma stem cells, the experiment was carried out using a 96-well cell culture plate which is coated with 100 μg/mL poly-lysine overnight, wherein the plate was washed twice next day with saline, and allowed to dry until use. The cells were digested, resuspended as a single cell suspension, counted and seeded on a 96-well cell culture plate (U87MG SLC (5000 cells/well), U251 SLC (10000 cells/well), GSC2 (10000 cells/well), GSC5 (10000 cells/well)), allowed to grow overnight. […]

[2] = test system: glioma stem cells (GSC2-GFP, U87MG SLC-GFP) co-cultured with normal human astrocytes (HA); assay: Flow cytometry of co-culture model (GSC2-GFP or U87MG SLC-GFP + HA-RFP); type: cell-based; conditions: 24 hours, 1-30 μM; compared with normal human astrocytes
Protocol: 6-well and 96-well cell culture plates were pre-coated with 100 μg/mL poly-lysine at 37° C. overnight, followed by washing twice with saline and allowing to air-dry. GSC2-GFP cells stably expressing green fluorescence and HA cells stably expressing red fluorescence were digested into single cell, and resuspended in fresh culture medium, counted and diluted to 5×10^4 cells/mL. Then, the two types of cells were mixed well at a ratio of 1:1, divided into five tubes. Clofoctol were added in each tube and mixed well, so that the concentrations of clofoctol were 0 μM, 1 μM, 3 μM, 10 μM, 30 μM, respectively. The resulting mixtures were added to a 6-well cell culture plate (2 mL) and a 96-well cell culture plate (100 μL, 3 replicate wells per group) respectively for 24 hours, before the MTS assay was used to detect the cell activity of each treatment group in the 96-well cell culture plate. The cells in the 6-well cell culture plates were collected separately, washed twice with PBS, and resuspended with 100 μL respectively. The proportion of GSC2-GFP and HA-RFP in the viable cells of each treatment group was analyzed by flow cytometry. Considering the changes in cell activity after medicament treatment of the co-culture model, the relative cell viability of each cell component in the co-culture model was statistically analyzed. […]

GSC2 tumorspheres = assay: Experiment of tumorsphere formation; type: cell-based, human
Protocol: After coating the 96-well cell culture dish, 100 μL single cell suspension containing 5000 GSC2 was added to each well. After 4 days of natural growth, the original medium was removed, and 100 μL fresh culture containing various concentrations of clofoctol was added to each well. The medicament concentrations were 0.03 μM, 0.1 μM, 0.3 μM, 1 μM, 3 μM, 10 μM and 30 μM, respectively. After 48 hours of medicament treatment, the morphological changes of the tumorspheres in each treatment group were observed under the microscope, and the number of tumorspheres in each treatment group was also counted.

GSC5 = assay: Limited dilution experiment (self-renewal); type: cell-based, human; conditions: GSC5, 1 μM, 3 μM and 10 μM, 2 weeks
Protocol: (1) The cells of GSC5 tumorspheres in suspension culture were collected into a 15 mL centrifuge tube, 0.5 mL of ACCUTASE enzyme (purchased from sigma) was added, and the cells were digested at 37° C. for 5 minutes. Then the cells were pipetted to single cell and the supernatant was removed after centrifugation;
(2) Fresh Neurobasal culture medium (purchased from gibco) was added. A portion of the cells were taken for trypan blue staining, followed by cell counting.
(3) After calculating the desired volume of cell culture medium, the cell concentration gradient of 200, 100, 50, 25 cells/well was set, and 10 replicate wells for each concentration were set. The DMSO control group and medicament treatment group with 0 μM, 1 μM, 3 μM and 10 μM of clofoctol were set.
(4) The cells were seeded in a 96-well plate at 100 and cultured in an incubator at 37° C., 5% CO2, 2 weeks later the proportion of the well without tumorsphere was counted;

[3] = test system: glioma stem cells (GSC5; FIG. 6 legend: GSC2); assay: Recovery assay (MTS after removal of medicament); type: cell-based, human; conditions: 24 or 48 hours treatment, then 48 hours in fresh medium
Protocol: (1) The 96-well cell culture plate was coated with 100 μg/mL poly-lysine.
(2) GSC5 was digested into single cell using ACCUTASE enzyme, resuspended in fresh Neurobasal culture medium, and the cells were then plated on the pre-coated 96-well cell culture plates overnight;
(3) clofoctol was added, the concentration of which were 0.03 μM, 0.1 μM, 0.3 μM, 1 μM, 3 μM, 10 μM and 30 μM, 9 replicate wells for each concentration;
(4) after 24 hours of treatment, 20 μL MTS/PMS mixed reagent was added to 3 replicate wells of each concentration to measure the cell activity. The medicament-containing medium in the other 6 replicate wells was removed, fresh medium was added to 3 of the 6 replicate wells, and medium containing the same concentration of clofoctol was added to the rest 3 replicate wells;
(5) after 48 hours of incubation, cell activity was detected by MTS assay.
After 48 hours of medicament treatment, the cells were restored for 48 hours and then detected, the steps are as above.

GSC2 [4] = assay: In situ tumorigenesis in nude mice of pretreated GSC2; type: in vivo, Balb/C nude mice
Protocol: The cells were collected after 24 hours of pre-treatment with clofoctol at a concentration of 30 μM, washed twice with PBS, and a portion of the cells were subjected to trypan blue staining and cell counting. The cells were injected in situ into the intracranial striatum of Balb/C nude mice aged 5-7 weeks, at 10^5 cells/mouse, 5 mice each group, and a DMSO control group was set.

U87MG SLC-GFP xenograft = assay: Administration to zebrafish glioma xenograft model; type: in vivo; conditions: 10 μM in hatching solution, 48 hours
Protocol: 3000 green-fluorescent-labeled U87MG SLC-GFP were injected into the yolk sac of the 48-hour zebrafish embryo. After 48 hours of natural growth, fluorescence microscopy was used to detect the tumorigenesis in zebrafish. And then clofoctol at a concentration of 10 μM was added to the zebrafish hatching solution. After 48 hours of medicament treatment, the green fluorescence intensity of zebrafish yolk sac was detected by fluorescence microscopy to determine the in vivo inhibitory effect of clofoctol on tumors in zebrafish xenograft models.

GSC2 subcutaneous tumors = assay: Subcutaneous GSC2 xenograft at armpits of nude mice; type: in vivo, Balb/C nude mice; conditions: 20 mg/kg, intraperitoneal injection, 11 days
Protocol: Subcutaneous tumorigenesis at armpits of nude mice: after centrifugation and digestion, GSC2 single cell re-suspended in PBS was subcutaneously inoculated into the armpits of 15 Balb/C nude mice of 5 weeks old. The inoculation number of the cells was 10^5 cells/mouse. The tumor size of nude mice was recorded (tumor size in nude mice=length*width^2/2). When the subcutaneous tumors in nude mice reached about 100 mm^3, they were divided into DMSO group and clofoctol administration group. The dose administered was 20 mg/kg, the mice were administered by intraperitoneal injection for a period of 11 days. The changes in tumor size and the body weight in two groups of nude mice were recorded.

GSC2 [5] = assay: Annexin V/PI counterstaining for the detection of apoptosis; type: cell-based, human; conditions: GSC2, 1-30 μM, 12 hours or 24 hours
Protocol: (1) GSC2 were treated with clofoctol at the concentrations of 1 μM, 3 μM, 10 μM, 30 μM for 12 hours or 24 hours;
(2) the cells were collected and washed twice with PBS;
(3) the cells were resuspended with 50 μL 1*binding buffer with the cell density of about 1*10^6 cells/mL;
(4) 2.5 μL FITC Annexin V and 2.5 μL PI were added;
(5) incubating for 15 min at room temperature in the darkness;
(6) 200 μL of 1*binding buffer was added to the system, and the cells in each treatment tube was passed through the cell strainer;
(7) flow cytometry analysis;
The Annexin V/PI counterstaining kit used was purchased from BD pharmingen with the product lot number 556547.

Question: Which “cell activity of glioma stem cells (MTS, FIG. 1)” value ([1]; 48 hours, 0.3-30 μM, compared with glioma cells and normal human cell lines) does the source give for `CC(C)(C)CC(C)(C)c1ccc(O)c(Cc2ccc(Cl)cc2Cl)c1` [clofoctol, 2-[(2,4-dichlorophenyl)methyl]-4-(2,4,4-trimethylpentan-2-yl)phenol] here?
Answer: specifically inhibits the cell activity of glioma stem cells

Question: What about the IC50 ([1]; Homo sapiens, four glioma stem cell strains (U87MG SLC, U251 SLC, GSC2, GSC5), after 48 hours treatment) of the same compound?
Answer: 7.65 to 10.5 µM

Question: And the “relative cell viability of each cell component in the co-culture model” value [2]?
Answer: specifically inhibits the cell activity of glioma stem cells in the co-culture model

Question: And the “morphology of tumorspheres at low concentrations” value (GSC2 tumorspheres; GSC2, 0.03 μM, 0.1 μM, 48 hours)?
Answer: grow protuberances and exhibit clear differentiation-like characteristics

Question: What about the “morphology of tumorspheres at high concentrations” value (GSC2 tumorspheres; GSC2, 10 μM, 30 μM, 48 hours) of the same compound?
Answer: caused the death of marginal cells of tumorspheres

Question: And the “size and number of tumorspheres” value (GSC2 tumorspheres; GSC2, 48 hours, 0.03-30 μM)?
Answer: significantly reduce the size and number of tumorspheres

Question: What about the “formation of glioma stem cell clones (self-renewal ability)” value (GSC5) of the same compound?
Answer: significantly inhibits the formation of glioma stem cell clones

Question: What about the “reversibility of the effect on glioma stem cells after removal of medicament” value [3] of the same compound?
Answer: irreversible to some extent

Question: And the “in situ tumorigenesis (mice with tumor / mice injected)” value (GSC2 [4]; GSC2 pretreated 24 hours at 30 μM, 1 * 10^5 cells/mouse, intracranial striatum)?
Answer: 0/5

Question: What about the “ability of in situ tumorigenesis in nude mice” value (GSC2 [4]; pretreatment of GSC2 at 30 μM for 24 hours) of the same compound?
Answer: significantly inhibits its ability of in situ tumorigenesis in nude mice

Question: What about the “in vivo tumor growth (green fluorescence intensity of yolk sac)” value (U87MG SLC-GFP xenograft) of the same compound?
Answer: significantly inhibits the in vivo tumor growth

Question: And the “side effects (body weight)” value (GSC2 subcutaneous tumors)?
Answer: side effects were small

Question: And the “tumor growth (tumor size)” value (GSC2 subcutaneous tumors)?
Answer: significantly inhibits tumor growth

Question: What about the “apoptosis in glioma stem cells” value (GSC2 [5]) of the same compound?
Answer: can induce apoptosis in glioma stem cells

From patent publication US10987318B2, “Application of clofoctol for manufacturing pharmaceutical product for treating human neuroglioma” (INSTITUTE OF BASIC MEDICAL SCIENCES, CHINESE ACADEMY OF …, priority 2016, dated 2021)
